Results taken from patent US20130245110A1, “USE FOR CANNABINOIDS” (priority 2008, published 2013).
“And” between values parts separate entries of the source, which are not always exact repeats. Identical values can stand only once.

Key:
pancreatic lipase = biological target: T1, pancreatic lipase (Homo sapiens, UniProt P16233); settings: subjects eating a 30% fat diet; cited from earlier work
T1 construct: host or cells: endogenous enzyme in subjects (in vivo)
T1 sequence (P16233 17-465): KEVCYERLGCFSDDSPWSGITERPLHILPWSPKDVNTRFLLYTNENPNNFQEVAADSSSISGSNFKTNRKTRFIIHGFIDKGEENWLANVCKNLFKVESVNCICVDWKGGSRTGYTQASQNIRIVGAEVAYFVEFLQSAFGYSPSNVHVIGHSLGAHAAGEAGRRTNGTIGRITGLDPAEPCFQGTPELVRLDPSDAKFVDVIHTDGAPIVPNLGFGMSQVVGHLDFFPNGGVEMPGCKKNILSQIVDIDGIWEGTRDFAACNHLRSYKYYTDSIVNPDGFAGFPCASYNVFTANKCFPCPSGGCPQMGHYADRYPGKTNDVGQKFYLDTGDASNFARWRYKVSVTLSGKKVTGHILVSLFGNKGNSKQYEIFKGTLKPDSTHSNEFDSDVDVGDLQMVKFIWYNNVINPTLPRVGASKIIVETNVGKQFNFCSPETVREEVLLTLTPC

[1] = tested on: dietary induced obese (DIO) mouse model; experiment: Thermic response to food (energy expenditure after Complan meal), chronic dosing study; format: in vivo; parameters: Thermic response to food: unit not given here; settings: DIO mice, days 15-17; for Thermic response to food: 10 mg·kg−1 p.o.
Text: (§1) Once the acute studies were complete the mice were grouped in two groups of five mice for the chronic dosing study. Dosing was daily by oral gavage at 09:00-10:00.
Energy expenditure consists of basal metabolic rate, exercise-induced energy expenditure, and non-exercise thermogenesis. The latter is the most likely area to be affected by anti-obesity agents. Non-exercise thermogenesis includes the thermic response to food, which in rodents can be measured by examining energy expenditure in response to a meal. This was measured after an oral dose of complan (see methods).

[2] = tested on: dietary induced obese (DIO) mouse model; experiment: 24 h energy expenditure by indirect calorimetry, chronic dosing study; format: in vivo; settings: DIO mice; 10 mg·kg−1 p.o.; relative to control, first 12 h post-dosing
Text: The C57B1/6 mouse fed on a high fat diet for around 12 weeks is a standard model used to evaluate agents likely to affect metabolic disease including obesity, type II diabetes and dyslipidaemia. Thus both potential anti-obesity effects and effects on diabetic and dyslipidaemia parameters will be measured.
as §1

rat isolated aortae = experiment: In vitro vascular studies by wire myography

## CCCCCCCCCCC[C@@H](C[C@@H]1OC(=O)[C@H]1CCCCCC)OC(=O)[C@H](CC(C)C)NC=O [Orlistat]
Pancreatic lipase
  Block of triacylglycerol hydrolysis: 30%

## Cc1c(C(=O)NN2CCCCC2)nn(-c2ccc(Cl)cc2Cl)c1-c1ccc(Cl)cc1 [rimonabant, reference compound]
[1]; Hour 0.44
  Thermic response to food: 1.11 and 1.21 and 2.21
[1]; Hour 0.67
  Thermic response to food: 1.38 and 1.56 and 2.67
[1]; Hour 4.00
  Thermic response to food: 1.56 and 2.90 and 3.09
[1]; chronic-study doses (rimonabant 10, pure THCV 0.3 mg·kg−1 p.o.)
  Thermic response to food, effect in words: without effect
[2]
  Effect on 24 h energy expenditure (days 10-12): small increase in energy expenditure

## COc1ccc(CCN(C)CCCC(C#N)(c2ccc(OC)c(OC)c2)C(C)C)cc1OC (stereo not shown) [verapamil, reference compound]
Rat isolated aortae
  Vasorelaxation of pre-constricted vessels: significant vasorelaxation
